Consider 12 compounds from patent US9730940B2, “Purine inhibitors of human phosphatidylinositol 3-kinase delta” (priority 2012, dated 2017).

The target in this experiment is PI3K-alpha (Homo sapiens (Human), UniProt P42336). The experiment in a line: HTRF PI3K biochemical assay, alpha isoform. Particulars: ratio PI3K-alpha IC50 value/PI3K-delta IC50 value. The text has this:
HTRF PI3K Biochemical Assay to Measure Intrinsic Potency of Compound Inhibitors
The PI3-Kinase biochemical assays were developed to measure the intrinsic potency and compound dependent inhibition of the alpha, beta, delta, and gamma PI3K isoform enzymes. This assay was developed and further optimized from a kit produced by Upstate (Millipore catalog #33-047) and has been configured for HTS and SAR screening. Briefly, this procedure exploits the exquisite specificity and high affinity binding of enzyme reaction substrate phosphatidyl(3,4,5)triphosphate (PIP3) to the GRP1 pleckstrin homology (PH) domain to generate the signal. In the absence of PIP3, an HTRF (Homogeneous Time-Resolved Fluorescence energy transfer) complex is formed consisting of europium (Eu)-labeled anti-GST, GST tagged GRP1-PH domain, biotin-PIP3 and streptavidin conjugated APC. The native PIP3 produced by PI3-Kinase activity disrupts in a competitive manner the biotin-PIP3 from the PH domain, resulting in the loss of energy transfer (HTRF complex) and a decrease in the signal. The format of this assay is the same for all 4 isoforms of PI3K; the differences lie in the concentration of enzyme used to achieve robust assay window. The alpha, beta, and delta assays are run at 0.5, 1, and 0.3 nM enzymes and the gamma assay is run at 5 nM enzyme. The ATP concentration is 100 uM in the alpha, beta, and delta assays and 50 uM ATP in the gamma assay. All reactions are run at 5 uM PIP2.
Compounds are serially diluted (3-fold in 100% DMSO) across a 384-well polypropylene source plated from column 3 to column 12 and column 13 to column 22, to yield 10 concentration dose response for each test compound. Columns 1, 2, 23 and 24 contain either only DMSO or pharmacological known control inhibitor.
The PI3-Kinase biochemical assay was optimized using the HTRF kit provided by Upstate (Millipore). The assay kit contains six reagents: 1) 4× Reaction Buffer; 2) native PIP2 (substrate); 3) Stop (EDTA); 4) Detection Mix A (Streptavidin-APC); 5) Detection Mix B (Eu-labeled Anti-GST plus GST-tagged PH-domain); 6) Detection Mix C.
PI3Kinase Reaction Buffer is prepared by dilution the stock 1:4 with de-ionized water. […] Enzyme addition and compound pre-incubation are initiated by the addition of 1.25 ul of PI3K (at twice its final concentration) in the 1× reaction buffer to all wells using a BioRaptor. Plates are incubated at room temperature for 15 minutes. Reactions are initiated by addition of 1.25 ul of 2× substrate solution (PIP2 and ATP in 1× reaction buffer) using BioRaptor. Plates are incubated in humidified chamber at room temperature for one hour. Reactions are quenched by addition of 0.625 uL of stop solution to all wells using the BioRaptor. The quenched reactions are then processed to detect product formation by adding 0.625 uL of Detection Solution to all wells using the BioRaptor (Detection mix C, Detection Mix A, and Detection Mix B combined together in an 18:1:1 ratio prepared 2 hours prior to use).
The loss of the HTRF signal is due to the displacement of biotinylated-PIP3 from the PH domain by the PI3K-dependent conversion of PIP2 to PIP3. This loss of signal is nonlinear with respect to both increasing product and time. This non-linear detection will impact accuracy of IC50 calculations; therefore, there is a need for a correction factor to obtain more accurate IC50 values. This correction is derived from a PIP3 standard curve run in a separate assay plate. All data were calculated using the ratio of acceptor (APC) to donor (Europium) fluorescence in each well of the assay plate. […] An IC50 was then calculated fitting the % inhibition data to the equation: % inhibition=min+(Max−min)/1+([inhibitor]/IC50)^n) where min is the % inhibition […], max is the signal in DMSO control, and n is the Hill slope.

Sequence of PI3K-alpha (P42336 whole entry, looked up, canonical isoform): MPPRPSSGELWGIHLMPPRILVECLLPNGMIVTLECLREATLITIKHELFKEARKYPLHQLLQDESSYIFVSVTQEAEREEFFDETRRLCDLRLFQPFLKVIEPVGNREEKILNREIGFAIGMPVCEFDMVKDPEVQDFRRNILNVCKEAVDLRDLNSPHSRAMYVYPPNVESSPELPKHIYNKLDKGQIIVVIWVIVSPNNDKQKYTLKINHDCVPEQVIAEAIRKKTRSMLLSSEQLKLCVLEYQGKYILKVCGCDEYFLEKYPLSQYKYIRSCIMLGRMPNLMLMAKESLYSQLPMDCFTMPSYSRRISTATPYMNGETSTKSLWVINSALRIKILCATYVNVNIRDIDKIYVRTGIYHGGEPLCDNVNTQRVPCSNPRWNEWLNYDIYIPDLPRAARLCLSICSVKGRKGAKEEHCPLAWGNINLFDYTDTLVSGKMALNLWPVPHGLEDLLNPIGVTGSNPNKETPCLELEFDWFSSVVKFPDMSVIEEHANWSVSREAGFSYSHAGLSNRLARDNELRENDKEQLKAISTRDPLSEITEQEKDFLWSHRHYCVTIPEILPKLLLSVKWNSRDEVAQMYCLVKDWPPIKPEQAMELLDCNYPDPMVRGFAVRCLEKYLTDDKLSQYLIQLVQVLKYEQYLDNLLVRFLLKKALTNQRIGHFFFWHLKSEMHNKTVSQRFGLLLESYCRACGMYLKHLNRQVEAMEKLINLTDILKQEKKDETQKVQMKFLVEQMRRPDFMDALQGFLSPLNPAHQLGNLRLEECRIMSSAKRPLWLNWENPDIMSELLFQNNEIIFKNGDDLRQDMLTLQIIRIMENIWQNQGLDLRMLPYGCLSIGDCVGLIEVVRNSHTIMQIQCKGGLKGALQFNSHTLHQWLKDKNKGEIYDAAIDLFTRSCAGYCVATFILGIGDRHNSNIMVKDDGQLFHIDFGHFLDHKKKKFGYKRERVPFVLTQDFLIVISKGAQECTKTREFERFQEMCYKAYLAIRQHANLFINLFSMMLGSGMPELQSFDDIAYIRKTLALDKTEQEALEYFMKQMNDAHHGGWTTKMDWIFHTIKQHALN
Sequence of PI3K-alpha (P27986 whole entry partner, looked up, canonical isoform): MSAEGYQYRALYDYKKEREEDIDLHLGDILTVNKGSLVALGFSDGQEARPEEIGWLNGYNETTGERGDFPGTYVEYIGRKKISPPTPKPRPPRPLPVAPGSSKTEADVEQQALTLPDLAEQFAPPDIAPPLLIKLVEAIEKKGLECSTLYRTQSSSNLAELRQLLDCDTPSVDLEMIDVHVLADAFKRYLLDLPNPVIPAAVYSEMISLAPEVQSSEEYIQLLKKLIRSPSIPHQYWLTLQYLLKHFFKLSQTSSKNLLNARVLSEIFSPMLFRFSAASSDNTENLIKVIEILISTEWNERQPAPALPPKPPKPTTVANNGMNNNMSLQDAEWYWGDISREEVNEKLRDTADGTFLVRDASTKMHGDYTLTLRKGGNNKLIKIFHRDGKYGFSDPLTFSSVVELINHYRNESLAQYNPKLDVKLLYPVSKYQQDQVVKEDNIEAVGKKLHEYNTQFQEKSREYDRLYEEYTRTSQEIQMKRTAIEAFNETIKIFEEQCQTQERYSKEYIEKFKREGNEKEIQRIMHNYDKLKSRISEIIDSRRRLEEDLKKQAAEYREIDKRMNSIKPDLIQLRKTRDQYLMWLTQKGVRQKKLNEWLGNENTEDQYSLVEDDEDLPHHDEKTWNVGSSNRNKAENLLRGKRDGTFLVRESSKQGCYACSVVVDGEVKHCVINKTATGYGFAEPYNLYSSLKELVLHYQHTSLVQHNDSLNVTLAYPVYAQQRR

As to `CCn1c(-c2cnc(C)nc2)nc2c(OC3CN(C(=O)C4CC4)CC3F)ncnc21` (single isomer, unassigned) [Compound 2-137, 6-{[1-(cyclopropylcarbonyl)-(3S,4S)- or (3R,4R)-4-fluoropyrrolidin-3-yl]oxy}-9-ethyl-8-(2-methylpyrimidin-5-yl)-9H-purine], the “Relative Selectivity versus PI3Kalpha” value is listed as greater than 10.
Turning to `Cn1c(-c2ccc(N3CCCC3)nc2)nc2c(O[C@H]3CCN(C(=O)OC(C)(C)C)C3)ncnc21` [Compound 1-27, tert-butyl (3S)-3-{[9-methyl-8-(6-pyrrolidin-1-ylpyridin-3-yl)-9H-purin-6-yl]oxy}pyrrolidine-1-carboxylate], the “Relative Selectivity versus PI3Kalpha” value is given as greater than 10.
As for `CCn1ncc(-c2nc3c(O[C@H]4CCN(C(=O)c5ccccn5)C4)ncnc3n2C)c1C` [Compound 2-66, 8-(1-ethyl-5-methyl-1H-pyrazol-4-yl)-9-methyl-6-{[(3S)-1-(pyridin-2-ylcarbonyl)pyirolidin-3-yl]oxy}-9H-purine], the “Relative Selectivity versus PI3Kalpha” value is recorded as greater than 10.
On to `CCn1ncc(-c2nc3c(O[C@H]4CCN(C(=O)c5coc(C)n5)C4)ncnc3n2C)c1C` [Compound 2-27, 8-(1-ethyl-5-methyl-1H-pyrazol-4-yl)-9-methyl-6-({(3S)-1-[(2-methyl-1,3-oxazol-4-yl)carbonyl]pyrrolidin-3-yl}oxy)-9H-purine], for which the “Relative Selectivity versus PI3Kalpha” value is given as greater than 10.
In the case of `CCn1c(-c2cnc(C)nc2)nc2c(O[C@H]3CCN(C(=O)CC(C)(C)N)C3)ncnc21` [Compound 2-114, 4-[(3S)-3-{[9-ethyl-8-(2-methylpyrimidin-5-yl)-9H-purin-6-yl]oxy}pyrrolidin-1-yl]-2-methyl-4-oxobutan-2-amine], the “Relative Selectivity versus PI3Kalpha” value is recorded as greater than 10.
Under `Cn1c(-c2cnn3cccnc23)nc2c(O[C@H]3CCN(C(=O)OC(C)(C)C)C3)ncnc21` [Compound 1-22, tert-butyl (3S)-3-[(9-methyl-8-pyrazolo[1,5-a]pyrimidin-3-yl-9H-purin-6-yl)oxy]pyrrolidine-1-carboxylate] stands greater than 10; under `CCC(=O)N1CC[C@H](Oc2ncnc3c2nc(-c2cnn4c2CCC4)n3C)C1` [Compound 3-22, 8-(5,6-dihydro-4H-pyrrolo[1,2-b]pyrazol-3-yl)-9-methyl-6-{[(3S)-1-propanoylpyrrolidin-3-yl]oxy}-9H-purine], greater than 10; under `CCn1ncc(-c2nc3c(O[C@H]4CCN(c5cc(-n6cccn6)ncn5)C4)ncnc3n2C)c1C` [Compound 7-15, 8-(1-ethyl-5-methyl-1H-pyrazol-4-yl)-9-methyl-6-({(3S)-1-[6-(1H-pyrazol-1-yl)pyrimidin-4-yl]pyrrolidin-3-yl}oxy)-9H-purine], greater than 10.
As for `CCn1c(-c2cnc(C)nc2)nc2c(OC3CN(C(=O)C4CC4)CC3CF)ncnc21` (single isomer, unassigned) [Compound 3-69, cyclopropyl([(3S,4R) or (3R,4S)]-3-((9-ethyl-8-(2-methylpyrimidin-5-yl)-9H-purin-6-yl)oxy)-4-(fluoromethyl)pyrrolidin-1-yl)methanone], the “Relative Selectivity versus PI3Kalpha” value is reported as greater than 10.
With `CCC(=O)N1CC[C@H](Oc2ncnc3c2nc(-c2ccc(C(F)(F)F)nc2)n3C)C1` [Compound 3-2, (S)-1-(3-((9-methyl-8-(6-(trifluoromethyl)pyridin-3-yl)-9H-purin-6-yl)oxy)pyrrolidin-1-yl)propan-1-one], the “Relative Selectivity versus PI3Kalpha” value was greater than 10.
Take `CCC(=O)N[C@H]1CC[C@H](Oc2ncnc3c2nc(-c2cnc(C)nc2)n3CC)CC1` [Compound 9-7, N-(trans-4-{[9-ethyl-8-(2-methylpyrimidin-5-yl)-9H-purin-6-yl]oxy}cyclohexyl)propanamide]: the “Relative Selectivity versus PI3Kalpha” value is reported as greater than 10.
Take `CCn1c(-c2cnc(C)nc2)nc2c(O[C@H]3CCN(C(=O)C4CC(C)C4)C3)ncnc21` (stereo partly drawn) [Compound 2-129, 9-ethyl-6-({(3S)-1-[(3-methylcyclobutyl)carbonyl]pyrrolidin-3-yl}oxy)-8-(2-methylpyrimidin-5-yl)-9H-purine]: the “Relative Selectivity versus PI3Kalpha” value is recorded as greater than 10.
